One test deals with PDE V (c-GMP-specific). The test is described as follows: Inhibition of the phosphodiesterases in vitro: PDE V. The note with it: nucleotide 10^-6 mol/l, pH 7.5, 30 min; or [^3H] cGMP SPA assay. The class given is biochemical. As for the experimental part:
(§1) The c-GMP-stimulable PDE II, the c-GMP-inhibitable PDE III and the cAMP-specific PDE IV were isolated either from porcine or bovine myocardium. The Ca^2+ calmodulin-stimulable PDE I was isolated from porcine aorta, porcine brain or preferably from bovine aorta The c-GMP-specific PDE V was obtained from porcine small intestine, porcine aorta, human blood platelets and preferably from bovine aorta. Purification was carried out by anion exchange chromatography on Mono® Pharmacia essentially according to the method of M. Hoey and Miles D. Houslay, Biochemical Pharmacology, Vol. 40, 193-202 (1990) and C. Lugman et al., Biochemical Pharmacology Vol. 35, 1743-1751 (1986).
(§2) The enzyme activity was determined in a test mixture of 100 μl in 20 mM tris/HCl buffer ph 7.5 which contains 5 MM MgCl2, 0.1 mg/ml of bovine serum albumin and either 800 Bq of ^3 HcAMP or ^3 HcGMP. The final concentration of the corresponding nucleotides is 10^-6 mol/l. The reaction is started by addition of the enzyme; the amount of enzyme is proportioned such that during the incubation time of 30 min about 50% of the substrate is reacted. In order to test the cGMP-stimulable PDE II, ^3 HcAMP is used as a substrate and 10^-6 mol/l of unlabelled cGMP is added to the mixture. In order to test the Ca calmodulin-dependent PDE I, additionally CaCl2, 1 μM and calmodulin, 0.1 μM are added to the reaction mixture. The reaction is stopped by addition of 100 μl of acetonitrile which contains 1 mM cAMP and 1 mM AMP. 100 μl of the reaction mixture are separated on an HPLC and the cleavage products are quantitatively determined "on-line" using a flow scintillation counter. The substance concentration is measured at which the reaction rate is decreased by 50%. Additionally, the "phosphodiesterase [3H] cAMP-SPA enzyme assay" and the "phosphodiesterase [^3 H] cGMP-SPA enzyme assay" from Amersham Life Science were used for testing. The test was carried out according to the experimental protocol indicated by the manufacturer. For activity determination of the PDE2, the [^3 H] cAMP SPA assay was used, 10^-6 M cGMP being added to the reaction mixture to activate the enzyme. For the measurement of PDE1, calmodulin, 10^-7 M and CaCl2, 1 μM were added to the reaction mixture. The PDE5 was measured using the [^3 H] cGMP SPA assay.

The test system of test [1] is PDE II (c-GMP-stimulable). As to the kind of experiment: Inhibition of the phosphodiesterases in vitro: PDE II. In kind it is biochemical, porcine or bovine (myocardium). Conditions: ^3H cAMP substrate, 10^-6 mol/l unlabelled cGMP added; pH 7.5; 30 min. As for the experimental part:
as §1, §2

Test [2] deals with PDE I (Ca^2+ calmodulin-stimulable). The test is described as follows: Inhibition of the phosphodiesterases in vitro: PDE I. The note with it: CaCl2 1 μM and calmodulin 0.1 μM added; nucleotide 10^-6 mol/l; pH 7.5; 30 min. In kind it is biochemical, porcine aorta, porcine brain or preferably bovine aorta. As for the experimental part:
as §1, §2

One may read the IC50 as the concentration needed to halve the response being measured. A lower IC50 goes with greater potency.

With `CC(CCCc1ccccc1)n1cnc2c(=O)[nH]c(Cc3ccccc3)nc21` (stereo not drawn) [Example 1], the values for the IC50 (in the test with PDE V (c-GMP-specific); in test [1]; in test [2]) were 300 nM, 200 nM and 500 nM, respectively.

Take `CC(O)C(CCCc1ccccc1)n1cnc2c(=O)[nH]c(Cc3ccccc3)nc21` (stereo not drawn) [Example 33]: the IC50 amounted to 800 nM in the test with PDE V (c-GMP-specific), 100 nM in test [1] and 3000 nM in test [2].

With `CC(O)C(CCCc1ccccc1)n1cnc2c(=O)[nH]c(Cc3ccc(Cl)c(Cl)c3)nc21` (stereo not drawn) [Example 34], the IC50 in the test with PDE V (c-GMP-specific) is 500 nM; in test [1], 20 nM; in test [2] it was approximately 500 nM.

With `CC(O)C(CCCc1ccccc1)n1cnc2c(=O)[nH]c(Cc3ccc(F)cc3)nc21` (stereo not drawn) [Example 69], the IC50 is 500 nM in the test with PDE V (c-GMP-specific), 60 nM in test [1] and 3000 nM in test [2].

Turning to `CC(CCCc1ccccc1)n1cnc2c(=O)[nH]c(Cc3ccc(-c4ccc(F)cc4)cc3)nc21` (stereo not drawn) [Example 80], the IC50 with PDE V (c-GMP-specific) was 1000 nM; in test [1] it was 80 nM; in test [2], 100 nM.

As for `CC(CCCc1ccccc1)n1cnc2c(=O)[nH]c(Cc3ccc(-c4cccc(N)c4)cc3)nc21` (stereo not drawn) [Example 82], the IC50 in the test on PDE V (c-GMP-specific) is 500 nM; in test [1], 20 nM; in test [2], 100 nM.

With `CC(CCCc1ccccc1)n1cnc2c(=O)[nH]c(Cc3ccc(-c4ccsc4)cc3)nc21` (stereo not drawn) [Example 83], the IC50 with PDE V (c-GMP-specific) is 500 nM; in test [1], 20 nM; in test [2], 300 nM.

Consider `CC(CCCc1ccccc1)n1cnc2c(=O)[nH]c(Cc3ccc(-c4cccnc4)cc3)nc21` (stereo not drawn) [Example 84], for which the IC50 in the test with PDE V (c-GMP-specific) came out at 1000 nM; in test [1], 20 nM; in test [2] it was 100 nM.

Turning to `COc1ccc(Cc2nc3c(ncn3C(CCCc3ccccc3)C(C)=O)c(=O)[nH]2)cc1OC` (stereo not drawn) [Example 100], the IC50 amounted to 1000 nM in the test with PDE V (c-GMP-specific), 4 nM in test [1] and 1000 nM in test [2].

Regarding `CC(O)C(CCCc1ccccc1)n1cnc2c(=O)[nH]c(Cc3ccc(NC(=O)C4CCN(C(=O)OCc5ccccc5)CC4)cc3)nc21` (stereo not drawn) [Example 121], the half-maximal inhibitory concentration (IC50) was determined as 1000 nM with PDE V (c-GMP-specific), 3 nM in test [1] and 500 nM in test [2].

For the compound `CCOC(=O)N1CCC(C(=O)Nc2ccc(Cc3nc4c(ncn4C(CCCc4ccccc4)C(C)O)c(=O)[nH]3)cc2)CC1` (stereo not drawn) [Example 122], the IC50 in the test with PDE V (c-GMP-specific) worked out at 1000 nM; in test [1], 4 nM; in test [2], 500 nM.

As to `COc1ccc(Cc2nc3c(ncn3C(CCCc3ccccc3)C(C)O)c(=O)[nH]2)cc1S(=O)(=O)N1CCC(C(=O)O)CC1` (stereo not drawn) [Example 138], the figures for the IC50 (in the test with PDE V (c-GMP-specific); in test [1]; in test [2]) were 500 nM, 1 nM and 500 nM, respectively.

The values are drawn from patent US5861396A, “Purin-6-one derivatives” (Bayer Aktiengesellschaft, priority 1995, dated 1999).
